Measurements taken from US10912819B2, “Neuroprotective peptides derived from activity-dependent neuroprotective protein for treatment of neurological diseases” (priority 2016, dated 2021).
“Also recorded” adds a separate entry of the source.

Key:
[1] = system: microtubule end binding protein 1 and 3 (EB1 and EB3) comets in living N1E-115; assay: Live imaging of EB1/EB3 comets in N1E-115 cells carrying ADNP mutations; format: cell-based; details: p.Tyr719*/p.Lys404Valfs*31 ADNP, 4 hours NAP treatment (10^−12M)
Excerpt: FIG. 10: NAP ameliorates cytoskeletal deficiencies associated with ADNP mutations. Human ADNP mutated cDNA was cloned into plasmids as described (Ivashko-Pachima et al., Molecular Psychiatry 2017, in press). The mutations cloned included the p.Tyr719* ADNP, the most common ADNP mutation (Gozes et al., Frontiers in Endocrinology, under revisions) and the p.Lys408Valfs31*, the first de novo ADNP mutation identified (reviewed in Gozes et al., J Mol Neurosci (2015) 56:751-757.
The effects of ADNP carried p.Tyr719*/p.Lys404Valfs*31 mutation on microtubule end binding protein 1 and 3 (EB1 and EB3) comets in living N1E-115 is shown. For experimental details see, Ivashko-Pachima et al., Molecular Psychiatry 2017, in press. (A) Live imaging of N1E-115 cells. EB1-RFP (red) co-transfected with full ADNP/p.Tyr719*/p.Lys404Valfs*31 carrying plasmids before and after 4 hours NAP treatment (10^−12M) (panel A1). […] (B-C) EB1 Quantification of average track length, comet speed, comet length and number of comets/100 μm^2 (total number of comets: ADNP (full) before treatment n=2639/1 I cells, ADNP (full) after NAP treatment n=3107/15cells, ADNP p.Tyr719* before treatment n=1910/14cells, ADNP p.Tyr719* after NAP treatment n=3990/16cells, ADNP p.Lys404Valfs*31 before treatment n=1082/6cells, ADNP p.Lys404Valfs*31 after NAP treatment n=694/5cells). […]

[2] = system: Adnp^+/− mice; assay: Hanging wire test; format: in vivo
Excerpt: The hanging wire test measures the strength of the mouse paws by using the latency to fall off from an inverted cage lid (placed 50 cm above the surface) onto a soft bedding (maximum time 120 sec). Data are expressed as mean±SEM.

[3] = system: Adnp^+/− mice; assay: Object recognition test; format: in vivo
Procedure: Data are expressed as mean (±SEM) total time (sec) spent exploring all objects designated by relative discrimination index (a and b-exploration of familiar and novel object, respectively) in Phase 2 (A) and Phase 3 (B). Two identical objects were presented during Phase 1 (habituation), and one of the identical objects was replaced by a novel object during Phases 2 and 3. […] (C) 2-month-old mice (n=3-4 males or 6-8 females per experimental group) were treated daily, five times a week for 6 weeks with 0.5 μg NAP/mouse/day by intranasal administration in DD=7.5 mg/ml of NaCl, 1.7 mg/ml of citric acid monohydrate, 3 mg/ml of disodium phosphate dihydrate, and 0.2 mg/ml of 50% benzalkonium chloride solution. Animal performance in the object recognition test after four week treatment is shown. Data are expressed as mean (±SEM) as above, in the long retention choice phase (24 hours after habituation).
(§1) Experiments performed as we described in Malishkevich et al., 2015 (37) and Amram et al., Mol Psychiatry. 2016 October; 21(10):1467-76 (7). 3-6 month-old male mice were used, drug application (0.5 μg/5 μl/mouse) was once daily, for one month and then behavioral assays were initiated together with drug application. In experiments with the vehicle termed DD (NAP-benzalkonium), drug application was at 2 months of age and continued as above. Open field experiments (16, 17) and elevated plus maze evaluations (18) were carried out as before.
Animal performance in the object recognition memory test is shown. Two identical objects were presented during the habituation phase, and one of the identical objects was replaced by a novel object during the short retention choice phase (3 hours) and the long retention choice phase (24 hours).

[4] = system: Adnp^+/− mouse pups; assay: Ultrasonic vocalization (USV) of pups after dam separation; format: in vivo, mice
Procedure: Furthermore, Auditory brain response (ABR) of 2.5 months old mice presents prolonged latency of hearing in Adnp+/− vs. Adnp+/+ females. (A) Results are presented as means±SEM. Ultrasonic vocalizations (USVs) were recorded in eight-day-old pups, subjected to daily subcutaneous injections of NAP (25 μg/ml saline) or saline (20 μl and 40 μl on postnatal days 1-4 and 5-7). The recordings were performed following dam separation according to published literature (Shu, W., et al. 2005. Proc Nati Acad Sci USA 102:9643-9648) NAP was injected as described before (Rotstein, M., et al., 2006. J Pharmacol Exp Ther 319:332-339).
Language and speech deficits affect ADNP-mutated children (38, 39) and autistic children in general (51). In rodents, both speech and social communication are tested by analysis of isolation induced ultrasonic vocalizations (USVs) (52). As part of USV test, 25 μg of NAP were diluted in 1 ml saline and injected (subcutaneous) to Adnp^+/− mouse pups for 9 subsequent days (1-9 days of age) in doses of 20, 40 μl on days 1-4, 5-7 respectively (50).

[5] = system: individuals suffering from progressive supranuclear palsy (PSP); details: 30 mg twice daily, changed formulation; cited from earlier work
[6] = system: Adnp^+/− mice; assay: Elevated plus maze test; format: in vivo; details: male mice, 5 min, NAP new formulation (CB); NAP-treated vs Adnp^+/− p<0.001
Procedure: FIG. 4. […] The relative time spent in the open/closed arms for 5 min is presented (n=9-12 per group). Data are expressed as mean±SEM. D2 calculates the exploration time of the open arms (a) and the exploration time of the closed arms (b).
as §1
Experiments were performed as described (18), assessing the different times spent in open arms (indicative of exploratory behavior) versus closed arms (indicative of anxious behavior) in the elevated plus maze (FIG. 4).

[7] = system: amnestic mild cognitive impairment patients; details: clinical study; cited from earlier work
[8] = 5-month-old mice, 0.5 μg NAP/mouse/day intranasal in CB, 3 weeks, p<0.05

## CC[C@H](C)[C@H](NC(=O)[C@H](CO)NC(=O)[C@@H](NC(=O)[C@@H]1CCCN1C(=O)[C@H](C)NC(=O)[C@@H](N)CC(N)=O)C(C)C)C(=O)N1CCC[C@H]1C(=O)N[C@@H](CCC(N)=O)C(=O)O [NAP]
[1]
  changes in microtubule dynamics (EB1/EB3 comets) caused by ADNP mutations: ameliorated, in part
[2]; 2-month-old mice, 0.5 μg NAP/mouse/day intranasal in DD, 5 weeks, p<0.01
  latency to fall, males: improved
[2]; [8]
  latency to fall, females: significant difference
  latency to fall, males: significant difference
[3]; 2-month-old mice, 0.5 μg NAP/mouse/day intranasal in DD, after four week treatment, p<0.05
  relative discrimination index, long retention choice phase, females: normalizing the deficient female behavior
[3]; 2-month-old mice, 0.5 μg NAP/mouse/day intranasal in DD, n=3-4
  relative discrimination index, long retention choice phase, males: only a trend
[3]; 2-month-old mice, NAP intranasal in DD
  relative discrimination index, short retention phase: No differences were observed
[3]; 3 hours after habituation, male mice 6-9 months, NAP in CB intranasal, NAP-treated vs Adnp^+/− p<0.001
  relative discrimination index novel vs familiar object, short retention choice phase: Significant differences
[3]; 24 hours after habituation, male mice 6-9 months, NAP in CB intranasal, NAP-treated vs Adnp^+/− p<0.001
  relative discrimination index novel vs familiar object, long retention choice phase: Significant differences
[4]; Adnp^+/− pups, NAP daily injections, FIG. 9C
  USV per minute, male and female groups combined: protected against this deficiency; also recorded: most significant increase
[4]; Adnp^+/− pups, NAP vs saline treated littermates, increased group size, FIG. 9B
  USV per minute by sex: normalizing it in females; also recorded: increased vocalization in both sexes
[4]; eight-day-old pups, daily subcutaneous NAP (25 μg/ml saline) vs saline, p=0.005
  number of USVs produced in a minute, Adnp^+/− pups: significant increase; also recorded: amelioration
[4]; eight-day-old pups, daily subcutaneous NAP vs saline, p=0.73
  number of USVs produced in a minute, Adnp^+/+ pups: no significant treatment effect
[5]
  efficacy in PSP: did not show efficacy
[6]
  increased anxiety: relative time spent in open/closed arms: ameliorated
[7]
  cognitive scores: increase in cognitive scores
